#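 Protocol summary: plate cells (96-well), add compound at 5 concentrations, incubate 48 h, interpolate endpoints linearly. GI50 = concentration required for 50% inhibition of growth. The concentration for full growth arrest is given as TGI.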
# What was measured:
# Experiment in all cases: NCI anticancer screen, dose series, 48 h
# [1] = tested on: 786-0 renal
# [2] = tested on: A549 NSCLC
# [3] = tested on: ACHN renal
# [4] = tested on: BT-549 breast
# [5] = tested on: CAKI-1 renal
# [6] = tested on: CCRF-CEM leukemia
# [7] = tested on: COLO 205 colon
# [8] = tested on: DU-145 prostate
# [9] = tested on: EKVX NSCLC
# [10] = tested on: HCC-2998 colon
# [11] = tested on: HCT-116 colon
# [12] = tested on: HCT-15 colon
# [13] = tested on: HL-60(TB) leukemia
# [14] = tested on: HOP-62 NSCLC
# [15] = tested on: HOP-92 NSCLC
# [16] = tested on: HS 578T breast
# [17] = tested on: HT29 colon
# [18] = tested on: IGROV1 ovarian
# [19] = tested on: K-562 leukemia
# [20] = tested on: KM12 colon
# [21] = tested on: LOX IMVI melanoma
# [22] = tested on: M14 melanoma
# [23] = tested on: MALME-3M melanoma
# [24] = tested on: MCF7 breast
# [25] = tested on: MDA-MB-231 breast
# [26] = tested on: MDA-MB-435
# [27] = tested on: MOLT-4 leukemia
# [28] = tested on: NCI-H226 lung
# [29] = tested on: NCI-H23 lung
# [30] = tested on: NCI-H460 lung
# [31] = tested on: NCI-H522 lung
# [32] = tested on: NCI/ADR-RES ovarian
# [33] = tested on: OVCAR-3 ovarian
# [34] = tested on: OVCAR-4 ovarian
# [35] = tested on: OVCAR-5 ovarian
# [36] = tested on: OVCAR-8 ovarian
# [37] = tested on: PC-3 prostate
# [38] = tested on: RPMI-8226 leukemia
# [39] = tested on: RXF 393 renal
# [40] = tested on: SF-268 CNS
# [41] = tested on: SF-295 CNS
# [42] = tested on: SF-539 CNS
# [43] = tested on: SK-MEL-2 melanoma
# [44] = tested on: SK-MEL-28 melanoma
# [45] = tested on: SK-MEL-5 melanoma
# [46] = tested on: SK-OV-3 ovarian
# [47] = tested on: SN12C renal
# [48] = tested on: SNB-19 CNS
# [49] = tested on: SNB-75 CNS
# [50] = tested on: SR leukemia
# [51] = tested on: SW-620 colon
# [52] = tested on: T-47D breast
# [53] = tested on: TK-10 renal
# [54] = tested on: U251 CNS
# [55] = tested on: UACC-257 melanoma
# [56] = tested on: UACC-62 melanoma
# [57] = tested on: UO-31 renal
smiles,measurement,setting,value
CCCCCCCCC[C@@H]1C[C@@H]2CCC3C(C(=O)OC)=C(C)NC(=N1)N32 (some centres not stated),TGI,[1],18.9 µM
same,TGI,[2],32.6 µM
same,TGI,[3],32.1 µM
same,TGI,[4],24.4 µM
same,TGI,[5],37.8 µM
same,TGI,[6],> 100 µM
same,TGI,[7],15.1 µM
same,TGI,[8],21.9 µM
same,TGI,[9],26.8 µM
same,TGI,[10],8.53 µM
same,TGI,[11],17.3 µM
same,TGI,[12],38.3 µM
same,TGI,[13],26.9 µM
same,TGI,[14],26.9 µM
same,TGI,[15],27.3 µM
same,TGI,[16],34.7 µM
same,TGI,[17],22.2 µM
same,TGI,[18],19.4 µM
same,TGI,[19],72.2 µM
same,TGI,[20],14 µM
same,TGI,[21],26.5 µM
same,TGI,[22],21.8 µM
same,TGI,[23],29 µM
same,TGI,[24],15.9 µM
same,TGI,[25],20 µM
same,TGI,[26],6.04 µM
same,TGI,[27],> 100 µM
same,TGI,[28],29.2 µM
same,TGI,[29],16.3 µM
same,TGI,[30],16.3 µM
same,TGI,[31],9.82 µM
same,TGI,[32],52.2 µM
same,TGI,[33],11.6 µM
same,TGI,[34],25.4 µM
same,TGI,[35],35.6 µM
same,TGI,[36],23.7 µM
same,TGI,[37],18.3 µM
same,TGI,[38],> 100 µM
same,TGI,[39],8.55 µM
same,TGI,[40],23.5 µM
same,TGI,[41],23.6 µM
same,TGI,[42],12.2 µM
same,TGI,[43],26.5 µM
same,TGI,[44],> 100 µM
same,TGI,[45],20.4 µM
same,TGI,[46],25 µM
same,TGI,[47],32.5 µM
same,TGI,[48],18.6 µM
same,TGI,[49],19.8 µM
same,TGI,[50],> 100 µM
same,TGI,[51],> 100 µM
same,TGI,[52],25.3 µM
same,TGI,[53],29.1 µM
same,TGI,[54],16.8 µM
same,TGI,[55],27 µM
same,TGI,[56],17.4 µM
same,TGI,[57],30.9 µM
COc1ccc2nc3cc(Cl)ccc3c(NCCCNCc3cc(OC)c(OC)c(OC)c3)c2c1,TGI,[6],> 100 µM
same,TGI,[26],3.24 µM
same,TGI,[35],3.11 µM
OC(c1cc2cc(Br)ccc2c2cc(Br)ccc12)C1CCCCN1 (configuration not stated),GI50,[5],1.76 µM
same,TGI,[5],3.54 µM
same,GI50,[8],1.95 µM
same,TGI,[8],3.43 µM
same,GI50,[13],1.75 µM
same,TGI,[13],3.43 µM
same,GI50,[15],1.21 µM
same,TGI,[15],2.67 µM
same,GI50,[35],1.58 µM
same,TGI,[35],3.13 µM
same,GI50,[57],1.46 µM
same,TGI,[57],3.18 µM
OCCN(CCO)N=Nc1ccc(-c2nc3ccccc3[nH]2)cc1,GI50,[1],25.2 µM
same,TGI,[1],56.2 µM
same,GI50,[2],44.9 µM
same,TGI,[2],> 100 µM
same,GI50,[3],35.6 µM
same,TGI,[3],> 100 µM
same,GI50,[4],42.7 µM
same,TGI,[4],97.8 µM
same,GI50,[5],17 µM
same,TGI,[5],60.6 µM
same,GI50,[7],22.9 µM
same,TGI,[7],70.4 µM
same,GI50,[8],20.9 µM
same,TGI,[8],46.6 µM
same,GI50,[9],17.1 µM
same,TGI,[9],37.5 µM
same,GI50,[11],25.3 µM
same,TGI,[11],64.3 µM
same,GI50,[12],21.8 µM
same,TGI,[12],51.2 µM
same,GI50,[13],10.8 µM
same,TGI,[13],32.1 µM
same,GI50,[14],> 100 µM
same,TGI,[14],> 100 µM
same,GI50,[15],3.02 µM
same,TGI,[15],23.8 µM
same,GI50,[16],23.5 µM
same,TGI,[16],72.8 µM
same,GI50,[18],87.4 µM
same,TGI,[18],> 100 µM
same,GI50,[19],24 µM
same,TGI,[19],> 100 µM
same,GI50,[20],16.3 µM
same,TGI,[20],55.4 µM
same,GI50,[21],12.5 µM
same,TGI,[21],25.5 µM
same,GI50,[22],46.4 µM
same,TGI,[22],> 100 µM
same,GI50,[25],31.3 µM
same,TGI,[25],97.8 µM
same,GI50,[26],18.5 µM
same,TGI,[26],38.8 µM
same,GI50,[27],14.4 µM
same,TGI,[27],38.5 µM
same,GI50,[28],> 100 µM
same,TGI,[28],> 100 µM
same,GI50,[30],13.7 µM
same,TGI,[30],29.5 µM
same,GI50,[31],50.2 µM
same,TGI,[31],> 100 µM
same,GI50,[32],34 µM
same,TGI,[32],58 µM
same,GI50,[33],11 µM
same,TGI,[33],25.7 µM
same,GI50,[34],15.9 µM
same,TGI,[34],36.1 µM
same,GI50,[35],> 100 µM
same,TGI,[35],> 100 µM
same,GI50,[36],24.7 µM
same,TGI,[36],53.9 µM
same,GI50,[37],39.4 µM
same,TGI,[37],> 100 µM
same,GI50,[38],21.3 µM
same,TGI,[38],52.4 µM
same,GI50,[39],27.9 µM
same,TGI,[39],65 µM
same,GI50,[40],3.31 µM
same,TGI,[40],40.5 µM
same,GI50,[41],17.4 µM
same,TGI,[41],36 µM
same,GI50,[43],41.2 µM
same,TGI,[43],> 100 µM
same,GI50,[44],15.8 µM
same,TGI,[44],29.5 µM
same,GI50,[45],20.2 µM
same,TGI,[45],53.4 µM
same,GI50,[46],> 100 µM
same,TGI,[46],> 100 µM
same,GI50,[47],85.5 µM
same,TGI,[47],> 100 µM
same,GI50,[48],> 100 µM
same,TGI,[48],> 100 µM
same,GI50,[49],28.9 µM
same,TGI,[49],> 100 µM
same,GI50,[50],20.3 µM
same,TGI,[50],58.2 µM
same,GI50,[51],18.9 µM
same,TGI,[51],38.4 µM
same,GI50,[52],19.8 µM
same,TGI,[52],53.1 µM
same,GI50,[53],36.1 µM
same,TGI,[53],> 100 µM
same,GI50,[54],17.6 µM
same,TGI,[54],37.4 µM
same,GI50,[55],33.2 µM
same,TGI,[55],> 100 µM
same,GI50,[56],35.2 µM
same,TGI,[56],> 100 µM
same,GI50,[57],43.8 µM
same,TGI,[57],> 100 µM

# Reference: PubChem BioAssay (NCI)
